Experimental data reported in ChEMBL document CHEMBL5291721, “A preclinical secondary pharmacology resource illuminates target-adverse drug reaction associations of marketed drugs” (Nat Commun, 2023).

Assays:
Androgen receptor = target: T1, Androgen receptor (Homo sapiens, UniProt P10275)
T1 sequence (P10275 whole entry): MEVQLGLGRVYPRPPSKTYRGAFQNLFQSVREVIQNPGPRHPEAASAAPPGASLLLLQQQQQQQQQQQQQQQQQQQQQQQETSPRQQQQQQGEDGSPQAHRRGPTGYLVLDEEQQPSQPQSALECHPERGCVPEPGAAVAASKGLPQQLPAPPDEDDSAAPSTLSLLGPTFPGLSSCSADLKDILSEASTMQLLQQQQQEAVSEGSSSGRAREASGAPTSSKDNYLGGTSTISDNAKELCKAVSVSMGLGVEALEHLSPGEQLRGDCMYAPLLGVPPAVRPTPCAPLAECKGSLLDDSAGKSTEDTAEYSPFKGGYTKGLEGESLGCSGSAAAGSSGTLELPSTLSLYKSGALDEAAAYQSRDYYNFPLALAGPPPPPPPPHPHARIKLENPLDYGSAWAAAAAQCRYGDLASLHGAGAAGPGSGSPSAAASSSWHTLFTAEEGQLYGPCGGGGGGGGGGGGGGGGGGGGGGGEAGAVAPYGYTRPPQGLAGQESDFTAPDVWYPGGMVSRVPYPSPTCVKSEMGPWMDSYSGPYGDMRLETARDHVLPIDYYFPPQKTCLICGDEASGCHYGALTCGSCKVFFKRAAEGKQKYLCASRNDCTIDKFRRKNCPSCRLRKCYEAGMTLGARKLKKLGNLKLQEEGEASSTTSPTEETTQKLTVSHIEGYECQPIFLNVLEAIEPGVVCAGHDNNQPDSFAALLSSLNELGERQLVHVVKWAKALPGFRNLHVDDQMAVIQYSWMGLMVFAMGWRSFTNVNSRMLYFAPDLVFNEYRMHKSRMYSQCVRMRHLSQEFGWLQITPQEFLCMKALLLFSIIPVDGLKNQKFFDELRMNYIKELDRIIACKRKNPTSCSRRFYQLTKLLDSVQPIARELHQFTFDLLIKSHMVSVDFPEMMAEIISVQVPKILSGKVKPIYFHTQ

[1] = target: Gamma-aminobutyric acid receptor subunit alpha-1 (Rattus norvegicus, UniProt P62813)
[2] = target: T2, 5-hydroxytryptamine receptor 2C (Homo sapiens, UniProt P28335)
T2 sequence (P28335 whole entry): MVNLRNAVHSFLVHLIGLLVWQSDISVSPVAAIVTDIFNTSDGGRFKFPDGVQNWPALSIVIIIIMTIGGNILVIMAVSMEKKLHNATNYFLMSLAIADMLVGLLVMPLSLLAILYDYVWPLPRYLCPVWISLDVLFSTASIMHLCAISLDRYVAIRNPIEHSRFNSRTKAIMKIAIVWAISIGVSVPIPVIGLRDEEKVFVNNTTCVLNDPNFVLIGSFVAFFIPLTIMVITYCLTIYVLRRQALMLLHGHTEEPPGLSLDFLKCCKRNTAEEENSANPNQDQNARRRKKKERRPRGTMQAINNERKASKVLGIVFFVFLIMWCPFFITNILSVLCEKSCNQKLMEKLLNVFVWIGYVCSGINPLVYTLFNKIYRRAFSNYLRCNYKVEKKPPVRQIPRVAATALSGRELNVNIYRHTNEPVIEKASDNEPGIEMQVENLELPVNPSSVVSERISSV

[3] = target: T3, Muscarinic acetylcholine receptor M1 (Homo sapiens, UniProt P11229); format: functional
T3 sequence (P11229 whole entry): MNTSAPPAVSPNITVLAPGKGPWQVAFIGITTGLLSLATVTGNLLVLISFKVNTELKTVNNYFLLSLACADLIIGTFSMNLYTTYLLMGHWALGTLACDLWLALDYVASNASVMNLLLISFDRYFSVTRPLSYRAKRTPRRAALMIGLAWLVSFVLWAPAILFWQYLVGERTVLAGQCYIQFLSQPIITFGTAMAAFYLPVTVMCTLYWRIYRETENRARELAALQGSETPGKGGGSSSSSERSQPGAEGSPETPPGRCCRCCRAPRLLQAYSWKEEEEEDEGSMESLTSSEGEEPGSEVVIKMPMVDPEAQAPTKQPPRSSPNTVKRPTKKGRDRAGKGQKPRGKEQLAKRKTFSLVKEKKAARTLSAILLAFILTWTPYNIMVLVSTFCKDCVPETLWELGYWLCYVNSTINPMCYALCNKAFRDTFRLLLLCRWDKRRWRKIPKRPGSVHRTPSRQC

[4] = target: T4, Alpha-2C adrenergic receptor (Homo sapiens, UniProt P18825); format: functional
T4 sequence (P18825 whole entry): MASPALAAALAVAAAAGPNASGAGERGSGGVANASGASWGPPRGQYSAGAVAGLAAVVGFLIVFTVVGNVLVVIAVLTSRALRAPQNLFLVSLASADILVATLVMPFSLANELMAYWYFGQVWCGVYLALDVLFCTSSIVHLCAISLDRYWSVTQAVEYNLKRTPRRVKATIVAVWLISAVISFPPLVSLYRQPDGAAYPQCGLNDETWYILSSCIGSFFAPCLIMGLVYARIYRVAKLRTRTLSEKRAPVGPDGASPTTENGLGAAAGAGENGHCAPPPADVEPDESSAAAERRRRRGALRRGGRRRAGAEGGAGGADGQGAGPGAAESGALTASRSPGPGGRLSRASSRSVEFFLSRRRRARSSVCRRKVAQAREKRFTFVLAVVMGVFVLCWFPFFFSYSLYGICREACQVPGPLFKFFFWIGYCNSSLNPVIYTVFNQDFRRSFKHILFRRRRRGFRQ

[5] = target: T5, 5-hydroxytryptamine receptor 1A (Homo sapiens, UniProt P08908); format: functional, cell-based
T5 sequence (P08908 whole entry): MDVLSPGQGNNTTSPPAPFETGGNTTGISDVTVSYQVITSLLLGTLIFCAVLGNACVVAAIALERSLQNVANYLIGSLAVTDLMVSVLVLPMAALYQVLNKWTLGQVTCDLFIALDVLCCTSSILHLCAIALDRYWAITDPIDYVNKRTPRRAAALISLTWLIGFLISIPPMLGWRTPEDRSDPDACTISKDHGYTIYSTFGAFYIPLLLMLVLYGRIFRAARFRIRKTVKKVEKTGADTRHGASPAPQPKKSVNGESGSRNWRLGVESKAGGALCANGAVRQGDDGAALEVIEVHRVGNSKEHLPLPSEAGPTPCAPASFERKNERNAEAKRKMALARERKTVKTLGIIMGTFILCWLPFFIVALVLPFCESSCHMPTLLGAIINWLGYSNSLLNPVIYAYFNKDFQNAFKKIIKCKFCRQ

[6] = target: Sodium-dependent dopamine transporter (Homo sapiens, UniProt Q01959)
Melanocortin receptor 3 = Melanocortin receptor 3 (Homo sapiens, UniProt P41968)
Note: assay procedure not described here.

Gamma-aminobutyric acid receptor subunit alpha-1, sequence (P62813 whole entry): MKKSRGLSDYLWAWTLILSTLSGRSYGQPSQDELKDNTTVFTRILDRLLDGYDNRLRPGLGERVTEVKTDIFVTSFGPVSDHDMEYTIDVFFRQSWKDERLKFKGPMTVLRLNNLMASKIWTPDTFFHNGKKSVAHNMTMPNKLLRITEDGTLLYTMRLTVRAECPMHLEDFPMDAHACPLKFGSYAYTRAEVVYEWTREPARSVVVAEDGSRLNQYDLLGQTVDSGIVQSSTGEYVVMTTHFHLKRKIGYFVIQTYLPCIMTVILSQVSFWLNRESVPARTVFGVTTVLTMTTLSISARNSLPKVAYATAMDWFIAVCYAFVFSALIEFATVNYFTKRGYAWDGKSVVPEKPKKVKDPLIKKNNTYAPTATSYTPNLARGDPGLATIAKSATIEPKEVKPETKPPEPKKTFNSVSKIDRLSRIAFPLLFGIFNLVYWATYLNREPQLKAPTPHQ
Melanocortin receptor 3, sequence (P41968 whole entry): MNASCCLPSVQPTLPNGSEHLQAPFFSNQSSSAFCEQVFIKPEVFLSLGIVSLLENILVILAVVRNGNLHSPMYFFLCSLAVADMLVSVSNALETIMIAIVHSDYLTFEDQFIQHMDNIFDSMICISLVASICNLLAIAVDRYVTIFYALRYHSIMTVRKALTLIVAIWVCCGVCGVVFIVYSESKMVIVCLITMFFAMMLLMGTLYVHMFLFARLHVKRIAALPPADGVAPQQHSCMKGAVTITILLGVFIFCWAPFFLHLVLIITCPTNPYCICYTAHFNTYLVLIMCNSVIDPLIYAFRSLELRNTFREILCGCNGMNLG
Sodium-dependent dopamine transporter, sequence (Q01959 whole entry): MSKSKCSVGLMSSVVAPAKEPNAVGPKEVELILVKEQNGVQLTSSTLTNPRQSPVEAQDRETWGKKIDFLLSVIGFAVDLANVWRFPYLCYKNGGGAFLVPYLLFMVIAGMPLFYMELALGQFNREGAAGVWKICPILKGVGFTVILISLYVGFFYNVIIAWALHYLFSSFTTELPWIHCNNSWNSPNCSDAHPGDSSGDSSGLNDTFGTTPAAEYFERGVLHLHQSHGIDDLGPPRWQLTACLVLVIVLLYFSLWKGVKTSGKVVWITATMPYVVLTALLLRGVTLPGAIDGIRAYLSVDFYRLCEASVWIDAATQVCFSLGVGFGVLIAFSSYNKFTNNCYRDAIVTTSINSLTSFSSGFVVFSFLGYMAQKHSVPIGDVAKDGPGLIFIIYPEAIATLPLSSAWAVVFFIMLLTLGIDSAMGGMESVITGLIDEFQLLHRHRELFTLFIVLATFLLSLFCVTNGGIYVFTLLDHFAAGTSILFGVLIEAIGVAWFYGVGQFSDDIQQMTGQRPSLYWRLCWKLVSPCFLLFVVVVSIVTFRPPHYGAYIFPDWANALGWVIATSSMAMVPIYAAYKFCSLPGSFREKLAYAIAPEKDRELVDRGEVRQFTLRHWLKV

Structure (SMILES)	AC50 (Androgen receptor) [µM]	AC50 [1] [µM]	further results
Cc1c(O)cccc1C(=O)N[C@@H](CSc1ccccc1)[C@H](O)CN1C[C@H]2CCCC[C@H]2C[C@H]1C(=O)NC(C)(C)C	> 30	> 30	
CCS(=O)(=O)N1CC(CC#N)(n2cc(-c3ncnc4[nH]ccc34)cn2)C1 [BARICITINIB]	> 30	> 30	
O=C1CN=C(c2ccccc2)c2c(sc3c2CCCC3)N1 [BENTAZEPAM]	1.24		
O=C(O)CCCN1CCC(O[C@@H](c2ccc(Cl)cc2)c2ccccn2)CC1 [BEPOTASTINE]	> 30	> 30	
CCCC[N+]1(C)[C@@H]2C[C@@H](OC(=O)[C@H](CO)c3ccccc3)C[C@H]1[C@@H]1O[C@@H]12 (some centres not stated) [BUTYLSCOPOLAMINE]	> 30	> 30	
O=C(c1ccc(F)c(F)c1Nc1ccc(I)cc1F)N1CC(O)([C@@H]2CCCCN2)C1 [COBIMETINIB]	> 30	> 30	
CN1CCN(C(c2ccccc2)c2ccccc2)CC1 [CYCLIZINE]	> 30		
NS(=O)(=O)c1cc2c(cc1Cl)NC(C1CC3C=CC1C3)NS2(=O)=O (configuration not stated) [CYCLOTHIAZIDE]	> 30	> 30	
Nc1nc(-n2cc(C(=O)O)c(=O)c3cc(F)c(N4CC(O)C4)c(Cl)c32)c(F)cc1F [DELAFLOXACIN]	> 30	> 30	
CCOc1ccc(/C=C2\NCCc3cc(OCC)c(OCC)cc32)cc1OCC [DROTAVERINE]	> 30		
N/N=c1/cc2c(n[nH]1)CCN(C(=O)c1ccccc1)C2 [ENDRALAZINE]	> 30	> 30	AC50 [2]: > 30 µM; AC50 [3]: > 30 µM; AC50 [4]: > 30 µM; AC50 [5]: > 30 µM
CCOC(=O)C(c1c(O)c2ccccc2oc1=O)c1c(O)c2ccccc2oc1=O [ETHYL BISCOUMACETATE]	> 30	> 30	
Cc1nc(-c2ccc(OCC(C)C)c(C#N)c2)sc1C(=O)O [FEBUXOSTAT]	> 30	> 30	
C[C@@H]1C[C@H]2[C@@H]3C[C@H](F)C4=CC(=O)C=C[C@]4(C)[C@@]3(F)[C@@H](O)C[C@]2(C)[C@@]1(O)C(=O)COC(=O)C(C)(C)C [FLUMETHASONE PIVALATE]	1.4		
C[C@@H]1C[C@H]2[C@@H]3C[C@H](F)C4=CC(=O)C(Cl)=C[C@]4(C)[C@@]3(F)[C@@H](O)C[C@]2(C)[C@@]1(O)C(=O)CO [HALOMETASONE]	10.3	> 30	
CC(C)Cc1ccc(C(C)C(=O)NO)cc1 (configuration not stated) [IBUPROXAM]	> 30		

Structure (SMILES)	AC50 (Androgen receptor) [µM]	AC50 [1] [µM]	further results
CS(=O)(=O)Nc1cc2occ(NC=O)c(=O)c2cc1Oc1ccccc1 [IGURATIMOD]	> 30		AC50 [6]: > 30 µM; AC50 (Melanocortin receptor 3): > 30 µM; AC50 [3]: > 30 µM; AC50 [4]: > 30 µM
O=C(NC1CCN(CCCCC2(C(=O)NCC(F)(F)F)c3ccccc3-c3ccccc32)CC1)c1ccccc1-c1ccc(C(F)(F)F)cc1 [LOMITAPIDE]	> 30	> 30	
CCN(CC)CCNc1ccc(C)c2sc3ccccc3c(=O)c12 [LUCANTHONE]	> 30		
CCOC(=O)CC(SP(=S)(OC)OC)C(=O)OCC (configuration not stated) [MALATHION]	> 30	> 30	
CN1C(=O)N(C)C2C1N(C)C(=O)N2C (configuration not stated) [MEBICAR]	> 30	> 30	AC50 [2]: > 30 µM; AC50 [3]: > 30 µM; AC50 [4]: 14 µM; AC50 [5]: > 30 µM
C1N2CN3CN1CN(C2)C3 [METHENAMINE]	> 30	> 30	
O=[N+]([O-])c1cncn1CCN1CCOCC1 [NIMORAZOLE]	> 30	> 30	
NC(=O)c1cccc2cn(-c3ccc([C@@H]4CCCNC4)cc3)nc12 [NIRAPARIB]	> 30	> 30	
CC(C(=O)O)c1ccc2c(c1)Cc1cccnc1O2 (configuration not stated) [PRANOPROFEN]	> 30		
O=C(O)CCn1c2c(c3ccccc31)C[C@H](NS(=O)(=O)c1ccc(F)cc1)CC2 [RAMATROBAN]		> 30	AC50 [6]: > 30 µM; AC50 [2]: > 30 µM; AC50 (Melanocortin receptor 3): > 30 µM; AC50 [3]: > 10 µM; AC50 [4]: > 10 µM; AC50 [5]: > 10 µM
CCO[C@@H](Cc1ccc(OCCn2c(C)ccc2-c2ccc(SC)cc2)cc1)C(=O)O [SAROGLITAZAR]	> 30		
CN1CCC2=C(C1)c1ccccc1Cc1ccccc12 [SETIPTILINE]	> 30		
COc1ccc(CCC(C)NCC(O)c2ccc(O)c([S+](C)[O-])c2)cc1 (configuration not stated) [SULFINALOL]	> 30		
C[C@@H]1O[C@@H](OC[C@H]2O[C@@H](Oc3c(-c4ccc(OCCO)c(OCCO)c4)oc4cc(OCCO)cc(O)c4c3=O)[C@H](O)[C@@H](O)[C@@H]2O)[C@H](O)[C@H](O)[C@H]1O [TROXERUTIN]	> 30		
COc1cc2c(cc1OC)[C@H]1C[C@@H](OC(=O)[C@@H](N)C(C)C)[C@H](CC(C)C)CN1CC2 [VALBENAZINE]	> 30	> 30	
